US20230073777A1, “CYCLIC-AMP RESPONSE ELEMENT BINDING PROTEIN (CBP) AND/OR ADENOVIRAL E1A BINDING PROTEIN OF 300 KDA (P300) DEGRADATION COMPOUNDS AND METHODS OF USE” (CULLGEN (SHANGHAI), INC., priority 2019, published 2023)

How the values were obtained:
LNCaP cells = experiment: LNCaP cell viability assay (CellTiter-Glo); format: cell-based; details: for IC50: Homo sapiens, 72 h, LNCaP prostate cancer cell viability inhibition, 3 days; for viability of LNCaP cells: from 10 μM, 12-point 3-fold serial dilution, 3 days (FIG. 4)
Description: LNCaP cells seeded in 96-well plates were treated with 10 μM GNE-781 or selected bivalent compounds, i.e. P-001, P-002, and P-019, following a 12-point 3-fold serial dilution. Three days after treatment, cell viability was determined using the CellTiter-Glo kit (Promega) following manufacturer's instructions. Cell viability was normalized to the mean values of 3 replicates of untreated cells. Dose-dependent response was analyzed following the least-squares non-linear regression method using the GraphPad Prism 5.0 software.
LNCaP cells were treated with GNE-781 or selected bivalent compounds for 3 days at indicated concentrations following a 3-fold serial dilution.
Cells were seeded at a density of 5000 cells per well in 96-well assay plates and treated with test compounds following a 12-point 3-fold serial dilution. Three days later, cell viability was determined using the CellTiter-Glo assay kit according to the manufacturer's instructions. The dose-response curves were determined and IC50 values were calculated using the GraphPad Prism software following a nonlinear regression (least squares fit) method.

P300 = P300 (Homo sapiens, UniProt Q09472); experiment: Immunoblotting of P300 protein levels in LNCaP or 22RV1 cells; format: cell-based; design: LNCaP or 22RV1 cells that express CBP/P300 proteins were treated with GNE-781 or the bivalent compounds; endogenous in cells; host or cells: LNCaP (clone FGC) or 22RV1 cells; details: percentage of inhibition of p300 at 10 nM (Table 2); read-out: Degradation (10 nM)
Chain of P300 (Q09472 whole entry): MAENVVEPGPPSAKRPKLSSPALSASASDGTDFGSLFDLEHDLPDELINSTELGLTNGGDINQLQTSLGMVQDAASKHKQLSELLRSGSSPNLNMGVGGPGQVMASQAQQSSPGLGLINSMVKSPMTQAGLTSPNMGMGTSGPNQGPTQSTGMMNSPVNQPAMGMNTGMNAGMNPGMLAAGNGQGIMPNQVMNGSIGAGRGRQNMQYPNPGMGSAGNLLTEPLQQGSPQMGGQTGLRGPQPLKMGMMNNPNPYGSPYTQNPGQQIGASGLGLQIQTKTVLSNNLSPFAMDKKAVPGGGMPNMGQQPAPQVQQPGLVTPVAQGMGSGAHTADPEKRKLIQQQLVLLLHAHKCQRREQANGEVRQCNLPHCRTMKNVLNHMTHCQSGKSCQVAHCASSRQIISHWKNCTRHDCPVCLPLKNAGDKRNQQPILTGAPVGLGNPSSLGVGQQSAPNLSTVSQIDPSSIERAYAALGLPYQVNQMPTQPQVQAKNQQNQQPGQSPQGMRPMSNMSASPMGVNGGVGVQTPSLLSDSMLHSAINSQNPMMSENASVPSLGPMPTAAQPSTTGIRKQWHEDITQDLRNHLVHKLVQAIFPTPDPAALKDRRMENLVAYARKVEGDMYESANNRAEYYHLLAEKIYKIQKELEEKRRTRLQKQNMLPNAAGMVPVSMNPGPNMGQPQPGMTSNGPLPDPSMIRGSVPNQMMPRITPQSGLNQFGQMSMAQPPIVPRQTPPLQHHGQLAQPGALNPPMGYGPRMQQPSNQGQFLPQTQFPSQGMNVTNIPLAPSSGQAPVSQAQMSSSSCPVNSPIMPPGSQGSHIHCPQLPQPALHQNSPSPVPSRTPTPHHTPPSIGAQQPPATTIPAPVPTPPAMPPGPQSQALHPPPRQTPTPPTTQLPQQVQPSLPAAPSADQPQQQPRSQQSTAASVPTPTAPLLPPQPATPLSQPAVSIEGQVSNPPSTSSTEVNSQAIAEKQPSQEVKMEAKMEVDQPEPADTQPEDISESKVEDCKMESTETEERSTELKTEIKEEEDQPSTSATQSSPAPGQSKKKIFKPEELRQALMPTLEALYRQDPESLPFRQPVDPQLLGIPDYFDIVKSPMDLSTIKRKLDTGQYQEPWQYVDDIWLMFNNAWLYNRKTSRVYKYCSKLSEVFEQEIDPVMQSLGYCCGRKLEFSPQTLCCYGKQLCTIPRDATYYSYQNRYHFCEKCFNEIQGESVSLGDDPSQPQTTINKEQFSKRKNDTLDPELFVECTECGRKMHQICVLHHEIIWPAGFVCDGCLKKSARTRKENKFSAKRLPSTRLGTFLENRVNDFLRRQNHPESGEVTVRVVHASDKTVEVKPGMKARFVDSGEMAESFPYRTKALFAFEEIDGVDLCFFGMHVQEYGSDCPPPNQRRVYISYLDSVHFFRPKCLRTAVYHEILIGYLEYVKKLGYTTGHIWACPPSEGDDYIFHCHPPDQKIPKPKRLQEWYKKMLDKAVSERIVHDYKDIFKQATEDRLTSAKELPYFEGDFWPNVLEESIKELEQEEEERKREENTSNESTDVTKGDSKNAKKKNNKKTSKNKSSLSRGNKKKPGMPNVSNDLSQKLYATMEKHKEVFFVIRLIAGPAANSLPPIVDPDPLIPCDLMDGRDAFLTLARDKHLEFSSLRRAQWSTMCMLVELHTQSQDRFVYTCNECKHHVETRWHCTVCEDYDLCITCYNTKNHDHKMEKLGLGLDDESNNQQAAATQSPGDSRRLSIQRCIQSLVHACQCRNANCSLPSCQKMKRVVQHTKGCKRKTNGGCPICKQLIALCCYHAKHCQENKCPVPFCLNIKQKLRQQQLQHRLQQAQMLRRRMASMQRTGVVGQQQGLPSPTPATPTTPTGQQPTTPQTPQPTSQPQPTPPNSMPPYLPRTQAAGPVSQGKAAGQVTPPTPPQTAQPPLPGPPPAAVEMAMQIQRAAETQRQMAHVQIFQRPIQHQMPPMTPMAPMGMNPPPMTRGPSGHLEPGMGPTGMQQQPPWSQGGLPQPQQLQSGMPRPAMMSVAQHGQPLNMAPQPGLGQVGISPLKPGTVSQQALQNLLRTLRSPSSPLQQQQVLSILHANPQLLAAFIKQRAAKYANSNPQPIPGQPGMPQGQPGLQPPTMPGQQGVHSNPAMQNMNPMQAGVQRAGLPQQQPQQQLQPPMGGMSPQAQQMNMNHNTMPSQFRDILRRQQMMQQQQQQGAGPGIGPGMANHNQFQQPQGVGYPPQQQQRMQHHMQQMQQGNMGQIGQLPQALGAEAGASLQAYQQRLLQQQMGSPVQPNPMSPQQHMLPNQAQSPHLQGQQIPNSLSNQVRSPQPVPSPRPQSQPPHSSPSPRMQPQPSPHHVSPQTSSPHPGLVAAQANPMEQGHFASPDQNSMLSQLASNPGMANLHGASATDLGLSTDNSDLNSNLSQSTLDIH
Description: Specific exemplary bivalent compounds were characterized in LNCaP or 22RV1 cells. LNCaP or 22RV1 cells that express CBP/P300 proteins were treated with GNE-781 or the bivalent compounds disclosed herein (P-001 to P-174) for indicated hours. Cells were collected, lysed and subject to immunoblotting using an antibody specific to P300 or CBP proteins. Tubulin or vinculin was included as the loading control. DMSO was used as the negative control.
Cultured cells or tissue chunks were washed with cold PBS once and lysed in cold RIPA buffer supplemented with protease inhibitors and phosphatase inhibitors (Beyotime Biotechnology). The solutions were then incubated at 4° C. for 30 minutes with gentle agitation to fully lyse cells. Cell lysates were centrifuged at 13,000 rpm for 10 minutes at 4° C. and pellets were discarded. Total protein concentrations in the lysates were determined by BCA assays (Beyotime Biotechnology). Cell lysates were mixed with Laemmli loading buffer to 1× and heated at 99° C. for 5 min. Proteins were resolved on SDS-PAGE and visualized by chemiluminescence. Images were taken by a ChemiDoc MP Imaging system (Bio-Rad). Protein bands were quantitated using the accompanied software provided by Bio-Rad.

| SMILES | IC50 (LNCaP cells; CellTiter-Glo (Table 2)) [nM] | inhibition at 0.01 µM (P300) [%] | viability of LNCaP cells (LNCaP cells) | IC50 (LNCaP cells; CellTiter-Glo (Table 3)) [nM] |
| --- | --- | --- | --- | --- |
| CNC(=O)N1CCc2c(c(N3CCCc4cc(-c5cnn(CC(=O)NCCCCCCCCCC(=O)NC(C(=O)N6C[C@H](O)C[C@H]6C(=O)NCc6ccc(-c7scnc7C)cc6)C(C)(C)C)c5)c(C(F)F)cc43)nn2C2CCOCC2)C1 (stereo in doubt) [P-049, 3-(7-(Difluoromethyl)-6-(1-(2-((10-(((S)-1-((2S,4R)-4-hydroxy-2-((4-(4-methylthiazol-5-yl)benzyl)carbamoyl)pyrrolidin-1-yl)-3,3-dimethyl-1-oxobutan-2-yl)amino)-10-oxodecyl)amino)-2-oxoethyl)-1H-pyrazol-4-yl)-3,4-dihydroquinolin-1(2H)-yl)-N-methyl-1-(tetrahydro-2H-pyran-4-yl)-1,4,6,7-tetrahydro-5H-pyrazolo[4,3-c]pyridine-5-carboxamide] | 234 | < 20 |  |  |
| CNC(=O)N1CCc2c(c(N3CCCc4cc(-c5cnn(C)c5)c(C(F)F)cc43)nn2C2CCN(C(=O)CNc3ccc4c(c3)C(=O)N(C3CCC(=O)NC3=O)C4=O)CC2)C1 (stereo not shown) [P-001, 3-(7-(Difluoromethyl)-6-(1-methyl-1H-pyrazol-4-yl)-3,4-dihydroquinolin-1(2H)-yl)-1-(1-((2-(2,6-dioxopiperidin-3-yl)-1,3-dioxoisoindolin-5-yl)glycyl)piperidin-4-yl)-N-methyl-1,4,6,7-tetrahydro-5H-pyrazolo[4,3-c]pyridine-5-carboxamide] | 185 | 50 to 80 | dose-dependently suppressed viability |  |
| CNC(=O)N1CCc2c(c(N3CCCc4cc(-c5cnn(C)c5)c(C(F)F)cc43)nn2C2CCN(C(=O)CCNc3ccc4c(c3)C(=O)N(C3CCC(=O)NC3=O)C4=O)CC2)C1 (stereo not shown) [P-002, 3-(7-(Difluoromethyl)-6-(1-methyl-1H-pyrazol-4-yl)-3,4-dihydroquinolin-1(2H)-yl)-1-(1-(3-((2-(2,6-dioxopiperidin-3-yl)-1,3-dioxoisoindolin-5-yl)amino)propanoyl)piperidin-4-yl)-N-methyl-1,4,6,7-tetrahydro-5H-pyrazolo[4,3-c]pyridine-5-carboxamide] | 42.1 | 50 to 80 | dose-dependently suppressed viability |  |
| CNC(=O)N1CCc2c(c(N3CCCc4cc(-c5cnn(C)c5)c(C(F)F)cc43)nn2C2CCN(C(=O)CCCNc3ccc4c(c3)C(=O)N(C3CCC(=O)NC3=O)C4=O)CC2)C1 (stereo not shown) [P-003, 3-(7-(Difluoromethyl)-6-(1-methyl-1H-pyrazol-4-yl)-3,4-dihydroquinolin-1(2H)-yl)-1-(1-(4-((2-(2,6-dioxopiperidin-3-yl)-1,3-dioxoisoindolin-5-yl)amino)butanoyl)piperidin-4-yl)-N-methyl-1,4,6,7-tetrahydro-5H-pyrazolo[4,3-c]pyridine-5-carboxamide] | 35.7 | 50 to 80 |  |  |
| CNC(=O)N1CCc2c(c(N3CCCc4cc(-c5cnn(C)c5)c(C(F)F)cc43)nn2C2CCN(C(=O)CCCCNc3ccc4c(c3)C(=O)N(C3CCC(=O)NC3=O)C4=O)CC2)C1 (stereo not shown) [P-004, 3-(7-(difluoromethyl)-6-(1-methyl-1H-pyrazol-4-yl)-3,4-dihydroquinolin-1(2H)-yl)-1-(1-(5-((2-(2,6-dioxopiperidin-3-yl)-1,3-dioxoisoindolin-5-yl)amino)pentanoyl)piperidin-4-yl)-N-methyl-1,4,6,7-tetrahydro-5H-pyrazolo[4,3-c]pyridine-5-carboxamide] | 7.1 | > 80 |  |  |
| CNC(=O)N1CCc2c(c(N3CCCc4cc(-c5cnn(C)c5)c(C(F)F)cc43)nn2C2CCN(C(=O)CCCCCNc3ccc4c(c3)C(=O)N(C3CCC(=O)NC3=O)C4=O)CC2)C1 (stereo not shown) [P-005, 3-(7-(difluoromethyl)-6-(1-methyl-1H-pyrazol-4-yl)-3,4-dihydroquinolin-1(2H)-yl)-1-(1-(6-((2-(2,6-dioxopiperidin-3-yl)-1,3-dioxoisoindolin-5-yl)amino)hexanoyl)piperidin-4-yl)-N-methyl-1,4,6,7-tetrahydro-5H-pyrazolo[4,3-c]pyridine-5-carboxamide] | 4 | > 80 |  |  |
| CNC(=O)N1CCc2c(c(N3CCCc4cc(-c5cnn(C)c5)c(C(F)F)cc43)nn2C2CCN(C(=O)CCCCCCNc3ccc4c(c3)C(=O)N(C3CCC(=O)NC3=O)C4=O)CC2)C1 (stereo not shown) [P-006, 3-(7-(difluoromethyl)-6-(1-methyl-1H-pyrazol-4-yl)-3,4-dihydroquinolin-1(2H)-yl)-1-(1-(7-((2-(2,6-dioxopiperidin-3-yl)-1,3-dioxoisoindolin-5-yl)amino)heptanoyl)piperidin-4-yl)-N-methyl-1,4,6,7-tetrahydro-5H-pyrazolo[4,3-c]pyridine-5-carboxamide] | 3.2 | > 80 |  |  |
| CNC(=O)N1CCc2c(c(N3CCCc4cc(-c5cnn(C)c5)c(C(F)F)cc43)nn2C2CCN(C(=O)CCOCCNc3ccc4c(c3)C(=O)N(C3CCC(=O)NC3=O)C4=O)CC2)C1 (stereo not shown) [P-008, 3-(7-(Difluoromethyl)-6-(1-methyl-1H-pyrazol-4-yl)-3,4-dihydroquinolin-1(2H)-yl)-1-(1-(3-(2-((2-(2,6-dioxopiperidin-3-yl)-1,3-dioxoisoindolin-5-yl)amino)ethoxy)propanoyl)piperidin-4-yl)-N-methyl-1,4,6,7-tetrahydro-5H-pyrazolo[4,3-c]pyridine-5-carboxamide] | > 10000 | 20 to 50 |  |  |
| CNC(=O)N1CCc2c(c(N3CCCc4cc(-c5cnn(C)c5)c(C(F)F)cc43)nn2C2CCN(C(=O)CCOCCOCCNc3ccc4c(c3)C(=O)N(C3CCC(=O)NC3=O)C4=O)CC2)C1 (stereo not shown) [P-009, 3-(7-(difluoromethyl)-6-(1-methyl-1H-pyrazol-4-yl)-3,4-dihydroquinolin-1(2H)-yl)-1-(1-(3-(2-(2-((2-(2,6-dioxopiperidin-3-yl)-1,3-dioxoisoindolin-5-yl)amino)ethoxy)ethoxy)propanoyl)piperidin-4-yl)-N-methyl-1,4,6,7-tetrahydro-5H-pyrazolo[4,3-c]pyridine-5-carboxamide] | 114 | 20 to 50 |  |  |
| CNC(=O)N1CCc2c(c(N3CCCc4cc(-c5cnn(C)c5)c(C(F)F)cc43)nn2C2CCN(C(=O)CCOCCOCCOCCNc3ccc4c(c3)C(=O)N(C3CCC(=O)NC3=O)C4=O)CC2)C1 (stereo not shown) [P-010, 3-(7-(Difluoromethyl)-6-(1-methyl-1H-pyrazol-4-yl)-3,4-dihydroquinolin-1(2H)-yl)-1-(1-(3-(2-(2-(2-((2-(2,6-dioxopiperidin-3-yl)-1,3-dioxoisoindolin-5-yl)amino)ethoxy)ethoxy)ethoxy)propanoyl)piperidin-4-yl)-N-methyl-1,4,6,7-tetrahydro-5H-pyrazolo[4,3-c]pyridine-5-carboxamide] | 152 | 20 to 50 |  |  |
| CNC(=O)N1CCc2c(c(N3CCCc4cc(-c5cnn(C)c5)c(C(F)F)cc43)nn2C2CCN(C(=O)CCOCCOCCOCCOCCNc3ccc4c(c3)C(=O)N(C3CCC(=O)NC3=O)C4=O)CC2)C1 (stereo not shown) [P-011, 3-(7-(Difluoromethyl)-6-(1-methyl-1H-pyrazol-4-yl)-3,4-dihydroquinolin-1(2H)-yl)-1-(1-(1-((2-(2,6-dioxopiperidin-3-yl)-1,3-dioxoisoindolin-5-yl)amino)-3,6,9,12-tetraoxapentadecan-15-oyl)piperidin-4-yl)-N-methyl-1,4,6,7-tetrahydro-5H-pyrazolo[4,3-c]pyridine-5-carboxamide] | 163 | 20 to 50 |  |  |
| CC(=O)N1CCc2c(c(N3CCCc4cc(-c5cnn(C)c5)c(C(F)F)cc43)nn2C2CCN(CCN3CCN(Cc4cccc5c4C(=O)N(C4CCC(=O)NC4=O)C5=O)CC3)CC2)C1 (stereo not shown) [P-145, 4-((4-(2-(4-(5-Acetyl-3-(7-(difluoromethyl)-6-(1-methyl-1H-pyrazol-4-yl)-3,4-dihydroquinolin-1(2H)-yl)-4,5,6,7-tetrahydro-1H-pyrazolo[4,3-c]pyridin-1-yl)piperidin-1-yl)ethyl)piperazin-1-yl)methyl)-2-(2,6-dioxopiperidin-3-yl)isoindoline-1,3-dione] |  |  |  | > 1000 |
